How the values were obtained:
[1] = system: mice; assay: Mouse subcutaneous implant method, in vivo angiogenesis and tolerability of BisEDT coated SIS (Example 7); conditions: 10 or 100 μg/cm^2 on SIS, 3 weeks
Method: The Example was performed to compare the in vivo angiogenic response to SIS compared to 2 levels of BisEDT coated SIS. The model used to detect in vivo angiogenesis was the mouse subcutaneous implant method as generally described by Heeschen et al., Nat. Med. […]; 7:833-9.
BisEDT was obtained from Microbion, Inc. as previously described. All SIS based grafts were made from 4-layer lyophilized sheets as described in the previous Examples. Sample groups consisted of this material coated with 10 μg/cm^2 BisEDT or 100 μg/cm^2 BisEDT. Each material was cut into ten 15 mm discs. Nylon filters with 0.22 μm pores were sewn on to the top and bottom of each disc. Low temperature ethylene oxide sterilization was used for each sample.
Samples were implanted subcutaneously into the dorsal flanks of mice. After anesthesia using Ketamine (87 mg/kg) and Xylazine (13 mg/kg), a small incision was made on the posterior neck of the mouse and a dorsal subcutaneous cavity was created using blunt dissection with hemostats. This was followed by sample placement and closure of the incision with 4 interrupted stitches of 5-0 suture. Six mice per group underwent disc implantation. The implant remained in the mice for a period of 3 weeks followed by probing for capillary formation.
Mice were sacrificed using a double dose of anesthesia to ensure intact flow in vasculature. While the heart was still beating, the chest cavity was exposed, vena cava severed, and 10 ml of heparized saline injected into the left ventricle using a 23 ga butterfly infusion set to exsanguinate the mouse. After transferring syringes (while maintaining infusion needle in left ventricle), 4 ml of a fluorescent microsphere (yellow-green, 0.1 μm diameter, Molecular Probes, F-8803) suspension (1:20 dilution of stock suspension) was injected through the left ventricle resulting in perfusion of the entire vasculature. Care was taken to ensure no bubbles were introduced during the injections, as bubbles will cause micro-emboli obstructing consistent perfusion. […]

[2] = system: S. aureus (ATCC #25983); assay: Zone-of-inhibition after various rehydration times of coated SIS discs (Example 3); format: cell-based
Method: (§1) BisEDT (Molar ratio 1:1.5) and BisBAL (1:1.5) (50 mg each) were obtained from Microbion, Inc. Small intestinal submucosa (SIS) was obtained and processed into 4-layer lyophilized sheets as described in Example 1. The sheets were subsequently cut into 15 mm discs (˜1.76 cm^2) using a disc punch. Bismuth thiols were resuspended in dimethyl sulfoxide (DMSO) and diluted to appropriate concentrations for coating. Discs were coated with the bismuth thiol solutions at a final concentration of 0.35 μg/μl using 50 μl of the solution per disc for a final concentration of 10 μg/cm^2. The discs were subsequently placed in a lyophilizer overnight to remove the DMSO solvent. S. aureus (ATCC #25983) was used as the bacteria for this experiment. Bacteria was grown in Tryptic Soy Broth for 16-24 hours before placing a lawn on Tryptic Soy Agar in 100 mm Petri dishes.
Thirty six samples were tested in total (2 BT*n=3→6*6 rehydration times→36). A lawn of S. aureus was swabbed onto the Tryptic Soy Agar. For the 0 rehydration time point, the bismuth thiol coated disc was placed approximately in the center of the plate and rehydrated with ˜50 μl of sterile saline. Other rehydration times were varied at 5, 10, 20, 30, or 60 minutes. For this, the samples were placed in sterile saline and a timer set for each time. At the appropriate time, samples were removed from the saline and placed approximately in the center of the plate. Plates were incubated inverted for 24 hours at which time pictures were taken with a digital camera. Zones-of-inhibition were compared visually between groups.

[3] = system: S. aureus (ATCC #25983); assay: Zone-of-inhibition after ethylene oxide or E-beam sterilization of coated SIS discs (Example 4); format: cell-based
Method: as §1, with “was” for “(Molar ratio 1:1.5) and BisBAL (1:1.5) (50 mg each) were”, “Inc. as previously described.” for “Inc.”, “BisEDT was” for “Bismuth thiols were”, “BisEDT solution” for “bismuth thiol solutions”, “solvent. For the ethylene oxide sterilization compatibility experiment, 6 discs were coated with 10 μg/cm^2 BisEDT and packaged into 2 separate tyvek pouches with 3 discs per pouch. One pouch was placed in a drawer until use and left non-sterile and the other pouch was sterilized with low temperature ethylene oxide sterilization. For the E-beam sterilization, essentially the same process was performed except the discs were packaged in foil pouches and the samples were subjected to E-beam sterilization with a dose of ˜25 kGy.” for “solvent.”, “dishes. […]” for “dishes.”

bismuth-1,2-ethanedithiol [BisEDT]
Angiogenic potential of coated SIS [1]: neither level of BisEDT (10 or 100 μg/cm^2) coated onto the SIS affected the angiogenic potential | Local toxicity at explant [1]: no visual evidence of local toxicity at explant | Systemic toxicity [1]: no observed symptoms of systemic toxicity | Effect of rehydration time on zone-of-inhibition, visual comparison ([2]; 10 μg/cm^2, rehydration 0-60 minutes in sterile saline): no visual differences between the rehydration time points | Zone-of-inhibition, visual ([2]; 10 μg/cm^2 on SIS disc, rehydration 0, 5, 10, 20, 30 or 60 minutes): significant effectiveness in creating a zone-of-inhibition | Zone-of-inhibition, visual ([3]; S. aureus, 10 μg/cm^2 on SIS disc, sterilized (ethylene oxide or E-beam ~25 kGy) and non-sterile): effectiveness at creating a zone-of-inhibition | Compatibility with sterilization technique ([3]; ethylene oxide vs E-beam (~25 kGy), zone-of-inhibition against S. aureus compared visually): E-beam sterilization exhibited greater compatibility with BisEDT than ethylene oxide sterilization
